{
  "source": "patent US20240009191A1",
  "about": "“METHOD AND COMPOSITION FOR THE TREATMENT OF DISEASE” (DIMERIX BIOSCIENCE PTY LTD, priority 2019, published 2024)",
  "key": {"AT1R and CXCR2": {"target": "T1, AT1R and CXCR2 (Homo sapiens, UniProt P25025+P30556)", "T1 sequence (P30556 1-359)": "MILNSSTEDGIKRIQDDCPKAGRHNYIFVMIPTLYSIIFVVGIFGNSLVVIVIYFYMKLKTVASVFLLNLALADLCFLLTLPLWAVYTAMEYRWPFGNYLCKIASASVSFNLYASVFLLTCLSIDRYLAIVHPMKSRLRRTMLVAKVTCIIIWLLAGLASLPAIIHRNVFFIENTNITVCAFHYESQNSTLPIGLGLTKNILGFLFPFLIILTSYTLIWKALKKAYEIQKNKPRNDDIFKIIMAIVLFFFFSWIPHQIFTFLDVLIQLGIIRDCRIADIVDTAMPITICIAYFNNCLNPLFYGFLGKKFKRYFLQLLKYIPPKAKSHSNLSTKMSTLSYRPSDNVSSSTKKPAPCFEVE", "T1 sequence (P25025 1-360)": "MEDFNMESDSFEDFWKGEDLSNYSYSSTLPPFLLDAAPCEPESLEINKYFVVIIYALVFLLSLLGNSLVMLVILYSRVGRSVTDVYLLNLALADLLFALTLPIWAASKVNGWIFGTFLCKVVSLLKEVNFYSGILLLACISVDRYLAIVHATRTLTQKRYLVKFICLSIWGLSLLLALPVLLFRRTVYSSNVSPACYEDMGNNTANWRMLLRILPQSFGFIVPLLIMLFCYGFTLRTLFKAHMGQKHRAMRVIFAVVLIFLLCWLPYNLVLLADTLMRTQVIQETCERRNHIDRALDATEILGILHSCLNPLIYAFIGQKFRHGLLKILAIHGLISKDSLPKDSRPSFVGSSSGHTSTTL", "assay": "IP1 accumulation, HEK293 cells stably-expressing CXCR2 and transiently-transfected with AT1R", "type": "cell-based"}, "AT1R-CXCR2 heteromer": {"target": "T2, AT1R-CXCR2 heteromer (Homo sapiens, UniProt P25025+P30556)", "T2 sequence (P30556 1-359)": "T1 sequence (P30556 1-359)", "T2 sequence (P25025 1-360)": "T1 sequence (P25025 1-360)", "assay": "BRET trafficking of AT1R/Rluc8 (Venus/Kras, Rab5) with unlabelled CXCR2, pre-treatment with vehicle or antagonists/inverse agonists", "type": "cell-based", "conditions": "pre-treatment with vehicle, 100 nM AngII only or with 10 nM CXCL8", "method": "HEK293FT cells were seeded in 6-well plates at a density of approximately 700,000 cells/well and maintained at 37° C., 5% CO2 in Complete Media (DMEM containing 0.3 mg/ml glutamine, 100 IU/ml penicillin and 100 μg/ml streptomycin (Gibco/Thermo Fisher)) supplemented with 10% fetal calf serum (FCS; Bovogen). Transient transfections were carried out 24 h after seeding using FuGene6™ (Promega) according to manufacturer instructions. 24 h post-transfection, cells were washed with PBS, detached using 0.05% trypsin/0.53 mM EDTA, resuspended in HEPES-buffered phenol red free Complete Media containing 5% FCS and added to a poly-L-lysine-coated white 96-well microplate (Greiner Bio-One). 48 h post-transfection, bioluminescence resonance energy transfer (BRET) assays were carried out following pre-incubation of cells with EnduRen™ (Promega) at a final concentration of 30 μM, at 37° C., 5% CO2 for 2 h. BRET measurements were taken at 37° C. using the LUMlstar™ or CLARIOstar™ (BMG Labtech).\nFor antagonist/inverse agonist assays, cells were pre-incubated with EnduRen for 1.5 hours, followed by the addition of vehicle or antagonists/inverse agonists (10 μM) for another 30 minutes.\nThe BRET signal observed between interacting proteins is normalized by subtracting the background BRET ratio. […] In the following examples, the second calculation will be used and the signal is described as ligand-induced BRET′. Furthermore, for data shown in FIGS. 4 to 20, all data points in a given set are corrected relative to the final data point prior to agonist treatment, which is fixed to zero. In keys on FIGS. 7 to 20, “>” means “followed by after 50 minutes”, with agonists added at time zero on the x-axes.\nPrior to agonist treatment (added at 0 minutes), a baseline BRET signal was recorded for each of the combinations for 20 minutes. Data were calculated as ligand-induced BRET relative to the ‘vehicle followed by vehicle’ (veh>veh) data set."}},
  "data": [
    {"substance": "Angiotensin II [AngII]", "values": [
      {"measurement": "Rmax, IP1 accumulation", "setting": "AT1R and CXCR2", "value": 209, "unit": "nM"},
      {"measurement": "proximity of AT1R/Rluc8 to Venus/Kras (BRET)", "setting": "AT1R-CXCR2 heteromer; FIG. 19A, 19B", "value": "marked reduction"},
      {"measurement": "proximity of AT1R/Rluc8 to Venus/Rab5 (BRET)", "setting": "AT1R-CXCR2 heteromer; FIG. 20A, 20B", "value": "marked increase"}
    ]}
  ]
}
